Data published in patent US5215916A, “Super glucocorticoid receptors: receptors with increased affinity and specificity for glucocorticoid steriods” (priority 1991, dated 1993).
Where a chain is given by its changes, count along the chain named.

Assays:
[1] = biological target: T1, C656G mutant glucocorticoid receptor (Rattus norvegicus, UniProt P06536, C656G/D98G); experiment: Competition binding assay with [3H]Dex, COS-7 cytosol, C656G receptor; set-up: Thus the full length receptor was removed from the VARO vector with BamHI and inserted into the SVL vector; expressed in transfected cells; host or cells: COS-7 (cytosol)
T1 sequence (P06536 1-795 D98G/C656G): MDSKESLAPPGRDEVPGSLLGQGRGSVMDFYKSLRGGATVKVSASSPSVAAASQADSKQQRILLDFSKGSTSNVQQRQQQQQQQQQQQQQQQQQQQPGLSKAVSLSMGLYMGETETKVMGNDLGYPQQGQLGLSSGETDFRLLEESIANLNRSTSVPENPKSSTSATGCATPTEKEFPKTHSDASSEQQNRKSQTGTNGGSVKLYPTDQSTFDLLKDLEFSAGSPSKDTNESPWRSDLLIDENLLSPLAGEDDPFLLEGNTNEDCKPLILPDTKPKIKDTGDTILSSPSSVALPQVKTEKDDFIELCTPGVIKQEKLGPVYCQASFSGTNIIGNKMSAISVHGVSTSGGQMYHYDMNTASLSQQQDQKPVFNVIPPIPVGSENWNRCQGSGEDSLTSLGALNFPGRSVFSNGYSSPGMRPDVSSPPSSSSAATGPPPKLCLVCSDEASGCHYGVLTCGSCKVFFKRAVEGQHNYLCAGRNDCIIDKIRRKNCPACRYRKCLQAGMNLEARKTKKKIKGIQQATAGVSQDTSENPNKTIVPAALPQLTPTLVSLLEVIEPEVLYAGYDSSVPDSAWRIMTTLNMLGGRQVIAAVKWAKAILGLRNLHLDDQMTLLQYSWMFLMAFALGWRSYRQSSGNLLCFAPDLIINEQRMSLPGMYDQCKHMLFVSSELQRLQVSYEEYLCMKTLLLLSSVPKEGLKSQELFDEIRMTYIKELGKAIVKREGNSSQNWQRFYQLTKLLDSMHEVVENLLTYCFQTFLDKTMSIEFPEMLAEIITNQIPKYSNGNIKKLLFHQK
Protocol: (§1) Monolayer cultures of COS-7 cells were grown in DMEM (Gibco) supplemented with 5% fetal bovine serum (FBS) (Biofluids) at 37° C. in a 5% CO2 incubator. Standard calcium phosphate transfection methods were used to introduce the wild type and mutant receptor expression vectors (pSVL) into COS-7 cells (100 mm plates [Costar] at a cell density of about 10^6 /plate were each treated with 10 μg of plasmid DNA). After ~16 hrs of incubation at 37° C. in a 5% CO2 incubator, the excess calcium phosphate and precipitate were removed by washing with phosphate buffered saline (PBS). The cells were incubated at 37° C. for another ~48 hr in DMEM/ 5% FBS and harvested by trypsinization followed by centrifugation (for 10 min at 1570 ×g) and washing 3 times with PBS. The washed cells were stored at -80° C. until used.
COS-7 cell cytosol containing the steroid-free receptors was prepared by cell lysis at -80° C. and centrifugation at 15,000 ×g and labeled as described for HTC cells (S. S. Simons and P. A. Miller, Biochem 23:6876-6882 (1984)). Briefly, 30% cytosol solutions containing ~21 mM Na2 MoO4 were prepared with three parts COS-7 cell cytosol, 2 parts pH 9.5 TAPS buffer, and 5 parts pH 8.8 TAPS buffer. The total EtOH in each experiment was kept constant and at a level of ≤1%. […] After incubation for 2.5 hr, the [^3 H]Dex-Mes-labeled solutions were quick-frozen at -78° C. for subsequent SDS-polyacrylamide gel electrophoresis analysis. The specifically bound [^3 H]Dex was determined by first adding a 10% dextran-coated charcoal solution (added volume =20% of reaction solution volume) to remove free steroid and then subtracting the nonspecific binding seen in the presence of excess nonradioactive Dex.
(§2) Duplicate aliquots (72 μl) of COS-7 cell cytosol (33.5% in pH 8.8 TAPS/27 mM Na2 MoO4 buffer) were treated with 4 μl each of [^3 H]Dex (in pH 8.8 TAPS buffer) and various concentrations of non-radioactive competing steroid (in 20% EtOH in pH 8.8 TAPS buffer) (final concentration of [^3 H]Dex ≈3 ×10^-8 M). The average specific binding was determined after 2.5 or 24 hr of incubation as described above, expressed as percentage of the non-competed control and plotted versus the log10 of the concentration of the competing steroid.
The specificity of steroid binding was determined by Rodbard correction (Rodbard, 1973) of the data from a competition binding assay (S. S. Simons et al., Biochem. Biophys. Res. Comm. 86:793-800 (1979); Miller and Simons, 1988). The initial data were collected from 2.5 hr binding assays because of concerns about the stability of the receptors over longer times.

[2] = biological target: T2, C640S mutant glucocorticoid receptor (Rattus norvegicus, UniProt P06536, C640S/D98G); experiment: Competition binding assay with [3H]Dex, COS-7 cytosol, C640S receptor
T2 construct: Thus the full length receptor was removed from the VARO vector with BamHI and inserted into the SVL vector; expressed in transfected cells; host or cells: COS-7 (cytosol)
T2 sequence (P06536 1-795 D98G/C640S): T1 sequence (P06536 1-795 D98G/C656G) with C640S, G656C
Protocol: as §1
COS-7 cell cytosol containing the steroid-free receptors was prepared by cell lysis at -80° C. and centrifugation at 15,000 ×g and labeled as described for HTC cells (S. S. Simons and P. A. Miller, Biochem 23:6876-6882 (1984)). […] The specifically bound [^3 H]Dex was determined by first adding a 10% dextran-coated charcoal solution (added volume =20% of reaction solution volume) to remove free steroid and then subtracting the nonspecific binding seen in the presence of excess nonradioactive Dex.
as §2
The specificity of steroid binding was determined by Rodbard correction (Rodbard, 1973) of the data from a competition binding assay (S. S. Simons et al., Biochem. Biophys. Res. Comm. 86:793-800 (1979); Miller and Simons, 1988). […]

SMILES	Relative Ka of Steroid Binding to Receptor [1]	Relative Ka of Steroid Binding to Receptor [2]	effect of replacement of Cys-656 with glycine on relative affinity ([1]; C656G vs wild type, compared with effect seen for C661S, 2.5 hr incubation)	change in absolute affinity for the glucocorticoid receptor as a result of C656G mutation ([1]; C656G vs wild type, from Table 1B and Table 2, aldosterone only "perhaps")
C[C@]12CC[C@@H]3c4ccc(O)cc4CC[C@H]3[C@@H]1CC[C@@H]2O [17β-Estradiol, 17β-estradiol]	0.0017 ± 0.0006	0.010 ± 0.007	–	–
C[C@]12CCC(=O)C=C1CC[C@@H]1[C@@H]2[C@@H](O)C[C@]2(C=O)[C@@H](C(=O)CO)CC[C@@H]12 [Aldosterone, aldosterone]	–	0.18 ± 0.002	less of an effect	decreased
CC#C[C@]1(O)CC[C@H]2[C@@H]3CCC4=CC(=O)CCC4=C3[C@@H](c3ccc(N(C)C)cc3)C[C@@]21C [RU486]	2.5 ± 0.7	6.8 ± 2.2	–	–
